According to BigSolDB 2.1:

COc1ccc2nc(SCc3ncc(C)c(OC)c3C)[nH]c2c1
solubility (mole fraction)
Settings | in ethanol | in ethyl acetate
277.65 K | 0.0029 | 0.0117
282.65 K | 0.00371 | 0.0168
288.15 K | 0.00483 | 0.0244
293.15 K | 0.00614 | 0.0337
298.05 K | 0.00773 | 0.0455
302.15 K | 0.00935 | 0.0577
307.65 K | 0.012 | 0.0781
313.15 K | 0.0155 | 0.104
317.65 K | 0.0189 | 0.129
322.15 K | 0.0231 | 0.16
327.65 K | 0.0293 | 0.203
333.15 K | 0.0372 | 0.256
